Source: PMC7971076 (Bioorganic & medicinal chemistry letters, 2015)

Legend:
[1] = system: cultured primary hippocampal neurons; experiment: Neuroprotection against NMDA-induced excitotoxicity, LDH release; format: cell-based; conditions: 100 µM NMDA plus 30 µM glycine 1 h; LDH 20–24 h after; 30 µM 4, 10 µM (+)MK-801
[2] = target: GluN1/GluN2C NMDA receptor (Rattus norvegicus, UniProt P35439+Q00961); format: cell-based; conditions: 3 µM compound, absence of Mg2+, n = 5
[3] = system: diheteromeric NMDA receptors (GluN1 with GluN2A–D); experiment: Two electrode voltage clamp, statements across the diheteromeric NMDA receptors; format: cell-based, rat; conditions: for decrease in potency: relative to parent analogues (1/14)
[4] = target: GluN1/GluN2D NMDA receptor (Rattus norvegicus, UniProt P35439+Q62645); format: cell-based; conditions: compared to screening hit 1
[5] = Stability of enantiomers separated by chiral semi-preparative HPLC; format: physicochemical; conditions: after chiral semi-preparative HPLC

Sequence of GluN1/GluN2D NMDA receptor (Q62645 28-1323, other chains not shown): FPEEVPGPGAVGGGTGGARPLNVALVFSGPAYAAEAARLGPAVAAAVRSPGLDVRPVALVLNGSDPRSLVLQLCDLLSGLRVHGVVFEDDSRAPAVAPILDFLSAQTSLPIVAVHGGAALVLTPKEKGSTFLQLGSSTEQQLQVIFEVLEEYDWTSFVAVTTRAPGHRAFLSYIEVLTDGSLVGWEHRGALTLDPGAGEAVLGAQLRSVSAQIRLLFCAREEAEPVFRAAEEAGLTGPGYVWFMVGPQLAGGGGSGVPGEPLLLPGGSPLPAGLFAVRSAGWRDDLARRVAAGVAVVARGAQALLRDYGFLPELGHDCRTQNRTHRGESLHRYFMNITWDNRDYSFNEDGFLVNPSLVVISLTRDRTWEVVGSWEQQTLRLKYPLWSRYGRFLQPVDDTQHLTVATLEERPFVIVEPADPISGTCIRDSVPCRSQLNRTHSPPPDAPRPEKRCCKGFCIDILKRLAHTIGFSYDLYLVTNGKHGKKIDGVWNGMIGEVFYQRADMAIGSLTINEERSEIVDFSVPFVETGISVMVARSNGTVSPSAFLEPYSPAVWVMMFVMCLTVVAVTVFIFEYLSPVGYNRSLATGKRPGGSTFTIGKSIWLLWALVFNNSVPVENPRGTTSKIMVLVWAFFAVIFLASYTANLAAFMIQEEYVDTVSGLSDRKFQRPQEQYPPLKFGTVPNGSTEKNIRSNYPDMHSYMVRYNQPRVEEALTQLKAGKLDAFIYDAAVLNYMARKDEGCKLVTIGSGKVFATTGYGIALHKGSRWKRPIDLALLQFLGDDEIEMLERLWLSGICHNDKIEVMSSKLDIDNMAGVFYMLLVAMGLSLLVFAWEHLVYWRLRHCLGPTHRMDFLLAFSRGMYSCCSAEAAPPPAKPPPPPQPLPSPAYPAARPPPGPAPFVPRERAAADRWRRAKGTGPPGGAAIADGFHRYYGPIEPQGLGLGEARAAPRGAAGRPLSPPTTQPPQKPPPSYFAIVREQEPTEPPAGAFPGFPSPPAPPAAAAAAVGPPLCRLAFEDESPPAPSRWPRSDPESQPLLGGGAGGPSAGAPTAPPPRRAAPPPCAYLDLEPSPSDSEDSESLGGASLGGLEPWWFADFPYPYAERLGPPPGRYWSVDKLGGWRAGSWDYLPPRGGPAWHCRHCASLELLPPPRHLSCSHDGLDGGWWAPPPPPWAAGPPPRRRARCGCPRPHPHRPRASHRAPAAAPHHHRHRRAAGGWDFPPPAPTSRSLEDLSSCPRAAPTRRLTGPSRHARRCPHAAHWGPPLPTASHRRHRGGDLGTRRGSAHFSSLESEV
Sequence of GluN1/GluN2C NMDA receptor (Q00961 20-1237, other chains not shown): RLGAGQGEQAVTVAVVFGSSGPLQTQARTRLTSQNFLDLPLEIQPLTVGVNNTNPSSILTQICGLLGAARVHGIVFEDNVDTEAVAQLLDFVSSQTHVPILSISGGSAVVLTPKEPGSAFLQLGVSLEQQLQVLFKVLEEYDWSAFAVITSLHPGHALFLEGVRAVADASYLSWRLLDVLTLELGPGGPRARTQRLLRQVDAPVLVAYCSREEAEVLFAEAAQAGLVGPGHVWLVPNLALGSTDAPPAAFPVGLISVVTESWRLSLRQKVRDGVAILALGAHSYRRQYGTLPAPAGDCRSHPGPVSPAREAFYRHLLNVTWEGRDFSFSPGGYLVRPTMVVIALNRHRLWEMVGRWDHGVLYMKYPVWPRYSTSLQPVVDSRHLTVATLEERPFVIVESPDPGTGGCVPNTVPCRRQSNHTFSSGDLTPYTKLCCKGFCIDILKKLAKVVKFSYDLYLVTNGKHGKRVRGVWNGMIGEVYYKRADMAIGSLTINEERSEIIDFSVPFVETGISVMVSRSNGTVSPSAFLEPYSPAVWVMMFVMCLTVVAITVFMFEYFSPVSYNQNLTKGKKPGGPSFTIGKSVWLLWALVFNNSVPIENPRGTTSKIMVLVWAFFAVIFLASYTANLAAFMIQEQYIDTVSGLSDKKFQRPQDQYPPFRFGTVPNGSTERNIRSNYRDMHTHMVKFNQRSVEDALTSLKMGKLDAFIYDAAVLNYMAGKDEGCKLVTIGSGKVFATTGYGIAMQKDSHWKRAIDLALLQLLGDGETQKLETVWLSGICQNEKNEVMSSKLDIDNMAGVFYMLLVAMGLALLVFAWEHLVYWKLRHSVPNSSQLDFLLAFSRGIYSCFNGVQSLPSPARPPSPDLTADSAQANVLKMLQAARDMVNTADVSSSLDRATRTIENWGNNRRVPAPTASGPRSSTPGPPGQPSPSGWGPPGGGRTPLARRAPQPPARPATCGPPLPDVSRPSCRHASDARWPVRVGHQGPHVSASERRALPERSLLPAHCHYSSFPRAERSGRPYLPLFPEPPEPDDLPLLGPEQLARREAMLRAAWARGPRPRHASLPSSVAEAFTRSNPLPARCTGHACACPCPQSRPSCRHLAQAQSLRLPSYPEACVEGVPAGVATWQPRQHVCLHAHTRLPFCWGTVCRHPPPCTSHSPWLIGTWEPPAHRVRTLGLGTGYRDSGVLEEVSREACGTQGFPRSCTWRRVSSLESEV

C[C@]12N[C@H](Cc3ccccc31)c1ccccc12 [(+)MK-801, reference compound]
NMDA/glycine-induced cell death (supernatant LDH) [1]: able to attenuate

CCOC(=O)c1c(NC(=O)CC2SC(N)=NC2=O)sc2c1CCC(C)C2 (centres unmarked) [Compound 4]
degree of inhibition at membrane potentials between ‒60 and +60 mV [2]: the same at all voltages tested | NMDA/glycine-induced cell death (supernatant LDH) [1]: reduced significantly | improved activity compared to unsubstituted counterpart 5 [3]: ~ 2 fold | mechanism: inhibition with 10-fold increase in glutamate (1000 µM) or glycine (300 µM) ([3]; 5 µM compound): could not be surmounted | inhibition at saturating concentrations against all GluN2 subunits ([3]; separate experiments, n = 4–6): 73–81%

CCOC(=O)c1c(NC(=O)CC2SC(=N)NC2=O)sc2c1CCCC2 (centres unmarked) [Compound 5]
increase in potency at GluN2D-containing receptors [4]: 3 fold

CCOC(=O)c1c(NC(=O)CC2SC(=N)NC2=O)sc2c1CCC(F)(F)C2 (centres unmarked) [Compound 11]
racemization of separated enantiomers [5]: prone to rapid racemization

N=C1NC(=O)C(CC(=O)Nc2sc3c(c2C(=O)O)CCCC3)S1 (centres unmarked) [Compound 13]
activity at NMDA receptor subtypes [3]: loss of activity

CCOC(=O)c1cc(C)sc1NC(=O)CC1SC(=N)NC1=O (centres unmarked) [Compound 15]
decrease in potency [3]: > 4 fold

COC(=O)c1ccsc1NC(=O)CC1SC(=N)NC1=O (centres unmarked) [Compound 19]
decrease in potency [3]: over 10 fold

COC(=O)c1c(NC(=O)CC2SC(N)=NC2=O)sc2c1CCCC2 (centres unmarked) [Compound 20]
increase in potency at GluN2D-containing receptors [4]: 2 fold

N#Cc1c(NC(=O)CC2SC(=N)NC2=O)sc2c1CCCC2 (centres unmarked) [Compound 21]
maximal inhibition [3]: 60%

COC(=O)c1c(NC(=O)CC2SC(N)=NC2=O)sc2c1CCC(C)C2 (centres unmarked) [Compound 22]
IC50 values for all NMDA receptor subunits [3]: submicromolar

CCOC(=O)c1c(NC(=O)CC2SC(=O)NC2=O)sc2c1CCC2 (centres unmarked) [Compound 24]
activity at NMDA receptor subtypes [3]: abolished activity

CCOC(=O)c1c(NC(=O)CC2SC(=O)NC2=O)sc2c1CCCC2 (centres unmarked) [Compound 25]
activity at NMDA receptor subtypes [3]: abolished activity

CCOC(=O)c1c(NC(=O)CC2NC(=O)NC2=O)sc2c1CCCC2 (centres unmarked) [Compound 27]
activity at NMDA receptor subtypes [3]: abrogated activity
